Reference: article PMC9942557, “Bolaamphiphile Analogues of 12-bis-THA Cl2 Are Potent Antimicrobial Therapeutics with Distinct Mechanisms of Action against Bacterial, Mycobacterial, and Fungal Pathogens” (mSphere, 2022)
In brackets after ≈: the same amount, converted by molar mass. Like-named read-outs stand apart in the source and are kept apart here.

Columns and labels:
C. glabrata 8018 = experiment: Broth microdilution MIC; assay type: cell-based
C. parapsilosis = experiment: Broth microdilution MIC; assay type: cell-based
C. albicans 3281 = experiment: Broth microdilution MIC; assay type: cell-based, Candida albicans
C. parapsilosis 3209 = experiment: Broth microdilution MIC; assay type: cell-based
C. tropicalis 8760 = experiment: Broth microdilution MIC; assay type: cell-based
C. krusei 3876 = experiment: Broth microdilution MIC; assay type: cell-based
C. auris temp probe = experiment: Broth microdilution MIC; assay type: cell-based, Candida auris
C. albicans 3179 = experiment: Broth microdilution MIC; assay type: cell-based, Candida albicans
[1] = tested on: pBR322 plasmid, wheat germ topoisomerase I; experiment: DNA unwinding assay; assay type: biochemical
Protocol: A DNA unwinding assay kit (Inspiralis Limited, Norwich, UK) consists of wheat germ topoisomerase I assay buffer (50 mM Tris HCl [pH 7.9], 1 mM EDTA, 1 mM dithiothreitol [DTT], 20% [vol/vol] glycerol, 50 mM NaCl) dilution buffer (50 mM Tris HCl [pH 7.9], 1 mM EDTA, 1 mM DTT, 50% [vol/vol] glycerol, 500 mM NaCl), wheat germ topoisomerase I (5 U/μL), supercoiled plasmid pBR322 (1 μg/μL), and relaxed plasmid pBR322 (1 μg/μL). For the experiments, 2× DNA loading buffer containing 40% (wt/vol) sucrose, 100 mM Tris-HCl (pH 8), 1 mM EDTA, and 0.5 mg/mL bromophenol blue was prepared. The enzyme was diluted 1/5 with dilution buffer before being used in the assay. For the assay, 3 mM stock solutions in methanol of the compounds to be tested were prepared. An appropriate number of 1.5-mL Eppendorf tubes were filled with 25 μL of a mix consisting of assay buffer (15 μL of buffer per sample), supercoiled or relaxed pBR322 (0.5 μg/assay), and ultrapure water. In the first two tubes, 1 μL of methanol was added to test the effect of the solvent on both the plasmid and the enzyme. Subsequently, 1 μL of the test compounds was added to the remaining tubes, and the tubes briefly vortexed and incubated at room temperature for 5 min. After that, 2 μL of dilution buffer was added in the first tube, whereas 2 μL of enzyme diluted solution was added to the remaining tubes. The tubes were gently vortexed and incubated for 30 min at 37°C in a water bath. After this time, the reaction was stopped by adding 20 μL of water and 50 μL of water-saturated butanol to each tube. The tubes were vortexed and centrifuged for 1 min at 14,800 rpm. The lower aqueous layer of each tube was removed and transferred to a new tube containing 30 μL of chloroform-isoamyl alcohol (24/1) and 50 μL of loading buffer. The tubes were briefly vortexed and centrifuged for 1 min. Twenty microliters of the upper layer of each tube was loaded onto a 1% (wt/vol) agarose gel, and the gel was run at 80 V for approximately 4 h in Tris-acetate-EDTA buffer (40 mM Tris acetate and 1 mM EDTA). Subsequently, the gel was stained with ethidium bromide (1 μg/mL) for 15 min, briefly destained (5 to 10 min) in water, and visualized with a Multi-Doc Imaging M-26X UVP transilluminator.

[2] = tested on: Klebsiella pneumoniae NCTC 13368; experiment: Broth microdilution MIC; assay type: cell-based
Klebsiella pneumoniae M6 = experiment: Broth microdilution MIC; assay type: cell-based
[3] = tested on: Acinetobacter baumannii AYE; experiment: Broth microdilution MIC; assay type: cell-based; details: Acinetobacter baumannii AYE
[4] = tested on: Pseudomonas aeruginosa PAO1; experiment: Broth microdilution MIC; assay type: cell-based
[5] = tested on: Acinetobacter baumannii ATCC 17978; experiment: Broth microdilution MIC; assay type: cell-based
[6] = tested on: Escherichia coli ATCC 25922; experiment: Intrahemocoelic G. mellonella infection model; assay type: in vivo, Galleria mellonella; details: single 10-mg/kg dose 1 h after infection
Protocol: The antimicrobial activities of DQC, CM2, and its analogues Quino-bola, Penta-bola, Hepta-bola, and Octa-bola against Escherichia coli ATCC 25922 were tested in Galleria mellonella larvae. All assays were performed on two separate occasions using a group size of 10 larvae; the larvae were kept in separate petri dishes and in a static incubator at 37°C during the period of the experiment. A suspension of E. coli ATCC 25922 was prepared by transferring two colonies of E. coli ATCC 25922 from a fresh agar plate into PBS and adjusting the absorbance to a McFarland 0.5 standard. The number of CFU per milliliter of this suspension was determined and corresponded to 1 × 10^8 CFU/mL. Larvae were injected beneath the tegument with 10 μL of a 1 × 10^7-CFU/mL bacteria suspension, corresponding to 1 × 10^5 CFU per larva. A 50-μL Hamilton syringe with a G27 needle was used for the injection. […] Ten microliters of stock solution was injected into each larva 1 h after infection (10 mg/kg). Levofloxacin (LVX; 50 μg/mL = 2 mg/kg) and PBS were used as positive and negative controls, respectively. A noninfected PBS injection was included to control for the effects of injection. Survival was monitored over a period of 70 to 72 h. Changes in G. mellonella survival were analyzed by the log rank (Mantel-Cox) method and plotted as Kaplan-Meier survival curves using GraphPad Prism version 7.

[7] = tested on: EMR Staphylococcus aureus 15 NCTC 13616; experiment: Broth microdilution MIC; assay type: cell-based; details: EMR Staphylococcus aureus 15 NCTC 13616
[8] = tested on: Pseudomonas aeruginosa NCTC 13437; experiment: Broth microdilution MIC; assay type: cell-based
[9] = tested on: EMR Staphylococcus aureus 16 NCTC 13277; experiment: Broth microdilution MIC; assay type: cell-based; details: EMR Staphylococcus aureus 16 NCTC 13277
HeLa = experiment: In vitro toxicity for cell line; assay type: cell-based, human; details: average ± standard error from 3 independent repeats
Text: (§1) TABLE 2 Toxicity of bolaamphiphiles for two cell lines^a | column: Toxicity (EC50 [μg/ml]) of: / 12-bis-THA Cl2; Toxicity (EC50 [μg/ml]) of: / Dequalinium; Toxicity (EC50 [μg/ml]) of: / Quino-bola; Toxicity (EC50 [μg/ml]) of: / Penta-bola; Toxicity (EC50 [μg/ml]) of: / Hepta-bola; Toxicity (EC50 [μg/ml]) of: / Octa-bola; Toxicity (EC50 [μg/ml]) of: / Octa-C10; Toxicity (EC50 [μg/ml]) of: / Octa-C8; Toxicity (EC50 [μg/ml]) of: / Octa-C6

HEK293 = experiment: In vitro toxicity for cell line; assay type: cell-based, human; details: HEK293; average ± standard error from 3 independent repeats
Text: as §1

[10] = tested on: VR Enterococcus faecalis NCTC 12201; experiment: Broth microdilution MIC; assay type: cell-based; details: VR Enterococcus faecalis NCTC 12201
[11] = tested on: VR Enterococcus faecium NCTC 12204; experiment: Broth microdilution MIC; assay type: cell-based; details: VR Enterococcus faecium NCTC 12204
[12] = tested on: Escherichia coli NCTC 12923; experiment: Broth microdilution MIC; assay type: cell-based
P. aeruginosa PAO1 [13] = experiment: Checkerboard synergy assay; assay type: cell-based, Pseudomonas aeruginosa
[14] = tested on: VS Enterococcus faecalis NCTC 775; experiment: Broth microdilution MIC; assay type: cell-based
P. aeruginosa PAO1 [15] = experiment: Fixed-concentration (0.25× MIC bolalipid) synergy broth microdilution; assay type: cell-based, Pseudomonas aeruginosa; details: P. aeruginosa PAO1
P. aeruginosa NCTC 13437 = experiment: as above; assay type: cell-based, Pseudomonas aeruginosa; details: P. aeruginosa NCTC 13437
M. smegmatis mc^2 155 = experiment: Broth microdilution MIC (Middlebrook 7H9); assay type: cell-based, Mycobacterium smegmatis
M. tuberculosis Bleupan [16] = experiment: microbe, parasite or virus in culture; assay type: cell-based, Mycobacterium tuberculosis
M. tuberculosis Bleupan [17] = assay type: in vivo, Galleria mellonella; details: in vivo
[18] = Lodderomyces parapsilosis, read-out: MIC
[19] = in the presence of 0.25× MIC Octa-bola (Table S1)
[20] = in the presence of 0.25× MIC Octa-C10 (Table S1)

SMILES | MIC (C. glabrata 8018; C. glabrata 8018) [µg/mL] | MIC [2] [µg/mL] | MIC (Klebsiella pneumoniae M6) [µg/mL] | MIC (C. parapsilosis) [µg/mL] | MIC [3] [µg/mL] | MIC (C. albicans 3281; C. albicans 3281) [µg/mL] | MIC [4] [µg/mL] | MIC (C. parapsilosis 3209) [µg/mL] | MIC (C. tropicalis 8760; C. tropicalis 8760) [µg/mL] | MIC [5] [µg/mL] | MIC [7] [µg/mL] | MIC [8] [µg/mL] | MIC [9] [µg/mL] | MIC (C. krusei 3876) [µg/mL] | Toxicity (EC50) (HeLa) [µg/mL] | Toxicity (EC50) (HEK293) [µg/mL] | MIC (C. auris temp probe; C. auris temp probe) [µg/mL] | MIC [10] [µg/mL] | MIC [11] [µg/mL] | MIC [12] [µg/mL] | other results
OC(Cn1cncn1)(Cn1cncn1)c1ccc(F)cc1F [Fluconazole, reference compound] | – | – | – | – | – | – | – | – | – | – | – | – | – | – | – | – | – | – | – | – | MIC (C. glabrata 8018; Nakaseomyces glabratus, 8018): > 128 µg/mL; MIC (C. parapsilosis; [18]): 0.5 µg/mL (≈ 1.63 µM); MIC (C. albicans 3281; Candida albicans, 3281): > 128 µg/mL; MIC (C. parapsilosis 3209; [18]): 0.25 µg/mL (≈ 0.816 µM); MIC (C. tropicalis 8760; Candida tropicalis, 8760): > 128 µg/mL; MIC (C. krusei 3876; Pichia kudriavzevii, read-out: MIC): 32 µg/mL (≈ 104 µM); MIC (C. auris temp probe; Candidozyma auris): > 128 µg/mL; MIC (C. albicans 3179; Candida albicans, 3179): > 128 µg/mL
Nc1c2c([n+](CCCCCCCCCCCC[n+]3c4c(c(N)c5ccccc53)CCCCC4)c3ccccc13)CCCCC2 [Hepta-bola] | 0.25 | 32 | 16 | 2 | 16 | 0.5 | 32 | 1 | 0.25 | 16 | 0.25 | 32 | 0.25 | 0.5 | 4.5 ± 0.7 | 3.5 ± 1.2 | 2 | 0.5 | 0.5 | 2 | DNA intercalation ([1]; relaxed pBR322 plasmid plus topoisomerase I (Fig. 2A)): to a slightly lesser extent, Hepta-bola are intercalators; relaxation of supercoiled plasmid through the action of topoisomerase I ([1]; supercoiled pBR322 plasmid, bolalipid present (Fig. 2B)): not observed; protection (survival over 72 h) [6]: significantly protective; MIC alone Bolalipid (P. aeruginosa PAO1 [13]): 32 µg/mL; MIC [14]: 1 µg/mL; MIC (C. albicans 3179; C. albicans 3179): 0.5 µg/mL
C[C@@H](O)[C@H]1C(=O)N2C(C(=O)O)=C(S[C@@H]3CN[C@H](C(=O)N(C)C)C3)[C@H](C)[C@H]12 [Meropenem] | – | – | – | – | – | – | – | – | – | – | – | – | – | – | – | – | – | – | – | – | MIC of antibiotic (P. aeruginosa PAO1 [15]; No bola (Table S1)): > 2 µg/mL; MIC of antibiotic (P. aeruginosa PAO1 [15]; [19]): > 2 µg/mL; MIC of antibiotic (P. aeruginosa NCTC 13437; No bola (Table S1)): > 32 µg/mL; MIC of antibiotic (P. aeruginosa NCTC 13437; [20]): > 32 µg/mL; MIC of antibiotic (P. aeruginosa NCTC 13437; [19]): > 32 µg/mL
Nc1c2c([n+](CCCCCCCC[n+]3c4c(c(N)c5ccccc53)CCCCCC4)c3ccccc13)CCCCCC2 [Octa-C8] | 2 | 32 | 32 | 8 | 32 | 2 | 32 | 4 | 1 | 32 | 1 | 32 | 1 | 4 | 27.3 ± 1.3 | 12.9 ± 4.3 | 4 | 4 | 0.5 | 8 | MIC (M. smegmatis mc^2 155): 0.19 µg/mL; MIC (M. tuberculosis Bleupan [16]): 0.49 µg/mL; MIC [14]: 4 µg/mL; MIC (C. albicans 3179; C. albicans 3179): 2 µg/mL
CO[C@H]1/C=C/O[C@@]2(C)Oc3c(C)c(O)c4c(O)c(c(/C=N/N5CCN(C)CC5)c(O)c4c3C2=O)NC(=O)/C(C)=C\C=C\[C@H](C)[C@H](O)[C@@H](C)[C@@H](O)[C@@H](C)[C@H](OC(C)=O)[C@@H]1C [Rifampin] | – | – | – | – | – | – | – | – | – | – | – | – | – | – | – | – | – | – | – | – | MIC of antibiotic (P. aeruginosa PAO1 [15]; No bola (Table S1)): 16 µg/mL; MIC of antibiotic (P. aeruginosa PAO1 [15]; [20]): 8 to 16 µg/mL; MIC of antibiotic (P. aeruginosa PAO1 [15]; [19]): 16 µg/mL; MIC of antibiotic (P. aeruginosa NCTC 13437; No bola (Table S1)): 16 µg/mL; MIC of antibiotic (P. aeruginosa NCTC 13437; [20]): 8 µg/mL; MIC of antibiotic (P. aeruginosa NCTC 13437; [19]): 16 µg/mL; larvae rescued (M. tuberculosis Bleupan [17]): All G. mellonella larvae were rescued
